Read-outs that look alike come from different tables or passages of the source.
How the values were obtained:
[1] = system: Plasmodium falciparum 3D7 strain (chloroquine-sensitive); experiment: Antimalarial activity in vitro, [3H]-hypoxanthine isotopic microtest; assay type: cell-based; conditions: asynchronous culture of infected erythrocytes, 48 hours + 18 hours [3H]-hypoxanthine, read-out: Plasmodium Proliferation test 3D7 strain (IC 50)
Procedure: Before experimentation, parasites of the 3D7 strain (chloroquine-sensitive, […] de Waal H. A. and F. […] ATCC no.: MRA-102) of Plasmodium falciparum are maintained in culture according to the Trager and Jansen method (Trager and Jansen, 1976). The antimalarial activity is measured in vitro on an asynchronous culture of erythrocytes infected with Plasmodium falciparum according to a modified method ([…] et al., 2003) based on the Desjardins isotopic microtest (Desjardins et al., 1979). […] After incubation for 48 hours, 0.5 μCi [^3H]-hypoxanthine (a precursor necessary for the synthesis of the radiolabelled nucleic acids of the parasite) are added to each microtitre plate well. After incubation for 18 hours, the hypoxanthine incorporation reaction is stopped and the cells lysed by direct freezing at -80° C. After thawing, the parasitic macromolecules, including the radiolabelled nucleic acids, are collected on a filter by means of a cell collector. A scintillation cocktail is added to the filter and the incorporated radioactivity is then measured with a scintillation counter. The radioactive background noise is measured starting from non-infected erythrocytes and subtracted from each filter measurement. The viability of the parasites treated with the compound to be tested is measured by their ability to synthesize nucleic acids from a radiolabelled precursor ([H^3]-hypoxanthine) in comparison with the control parasites cultured in the absence of the compound and is expressed as a percentage of the control. The measurements are analyzed by means of the Graphpad Prism software and the IC50 (concentration of compound able to inhibit 50% of the parasites' growth in vitro) is determined graphically. The results obtained appear in the form of IC50 in the table and are the result of two experiments carried out independently (different parasite cultures, different dilutions) in duplicate.

[2] = system: Toxoplasma (RH-β1 strain) in HFF (Human Foreskin Fibroblast) cells; experiment: Antitoxoplasmic activity in vitro, colorimetric microtitre proliferation test; assay type: cell-based, Toxoplasma gondii
Procedure: The test implemented here is a colorimetric microtitre test. A monolayer of HFF (Human Foreskin Fibroblast) cells is infected, in a synchronous manner, by the parasite (10^4 parasites per well, RH-β1 strain). After washing, increasing doses (from 50 nM to 100 μM) of compound are added, except to the control well (addition, or no addition, of DMSO). After incubation for 48 hours, the β-galactosidase activity is measured by the addition of a substrate of the enzyme, chlorophenol red β-D-galactopyranoside (CPRG). The plates are again incubated (from 30 min to 16 h at 37° C.) before being read at 570 and 630 nm.

[3] = system: synchronized Plasmodium falciparum parasites (ring, trophozoite, schizont); experiment: Minimum contact time necessary for cytotoxicity as a function of the parasitic stage (time-course); assay type: cell-based; conditions: 20×IC50, contact 30 min to 9 h; for activity on the different blood stages of the parasite (FIG. 11): viability as % of control; for speed and reversibility of the action (FIG. 11): washed, viability read at next cycle
Procedure: A culture of Plasmodium falciparum parasites is synchronized with VarioMACS (which retains the mature forms, which synthesize a pigment: haemozoin). After the culture has been passed through a VarioMACS column for 6 h, the synchronization range of the parasites is restricted by a second synchronization with 5% sorbitol (which retains only the young, so-called ring stage) at time t0, i.e. a short time after the invasion of healthy erythrocytes by the merozoites originating from the schizonts obtained by synchronization with the VarioMACS. The parasites are then brought into contact during each stage (ring, then trophozoite then schizont) with a fixed concentration of compound (20×IC50 previously defined by the above protocol) and for variable periods of time (30 min, 1 h 30 min, 3 h, 5 h, 7 h and 9 h in the case of parasites treated in the ring stage; 30 min, 1 h 30 min, 3 h, 5 h and 7 h in the case of parasites treated in the trophozoite and schizont stage). At the end of the defined period of contact, the erythrocyte mat is washed twice in complete medium. At t0+44h, (i.e. at the start of the subsequent parasitic life cycle), the erythrocyte mats are resuspended and redistributed into 96-well plates (in sextuplicate), 0.5 μCi of tritiated [^3H]-hypoxanthine is then added to the culture medium. From then on, the treatment is the same as that of the abovementioned experiment with one difference: the results obtained appear in the form of a graph which represents the viability of the parasites expressed as a control percentage as a function of the time for which the culture is in contact with the compound to be tested.

[4] = HFF monolayer infected with RH-β1 strain, 48 hours incubation, β-galactosidase activity (CPRG), read-out: Toxoplasma Proliferation test (IC 50)
[5] = Plasmodium falciparum, 3D7, Erythrocyte, 66 h
[6] = Toxoplasma, Fibroblast, 48 h, read-out: Toxoplasma Proliferation test (IC 50), HFF monolayer infected with RH-β1 strain, 48 hours incubation, β-galactosidase activity (CPRG)

| Compound | IC50 [1] [nM] | IC50 [1, 5] [nM] | IC50 [2, 6] [nM] | also measured |
| --- | --- | --- | --- | --- |
| CCCCCCCCCCCCC[C@@H]1C[C@H](O)C[C@]2(CCC3(C=CC(=O)C=C3)O2)O1 [Natural aculeatin B, aculeatin B, reference compound] | 454 | – | – | IC50 [2, 4]: 365 nM |
| CCCCCCCCCCCCCCCCCCOC(=O)C[C@@H]1C[C@@H](O)C[C@]2(CCC3(C=CC(=O)C=C3)O2)O1 (racemic) [10c, octadecyl (2S,4R,6R)- and (2R,4S,6S)-(4-Hydroxy-11-oxo-1,7-dioxadispiro[5.1.5.2]pentadeca-9,12-dien-2-yl)-acetate] | – | 770 | 2400 | – |
| CCCCCCCCCCCCCC(=O)OC1CC2(CC[C@]3(C=CC(=O)C=C3)O2)O[C@@]2(CC[C@]3(C=CC(=O)C=C3)O2)C1 (stereo partly drawn) [16d, (8R,10R,21S)-Tetradecanoate of 7,9,11-trioxatetraspiro[5.1.1.1.5^12.2^10.3^8.2^6]tetracosa-1,4,13,16-dien-3,15-on-21-yl] | 91.7 | – | – | activity on the different blood stages of the parasite (FIG. 11) [3]: active on the different blood stages (rings, trophozoites and schizonts); speed and reversibility of the action (FIG. 11) [3]: extremely rapid and is not reversible; IC50 ([2]; read-out: Toxoplasma Proliferation test (IC 50), HFF monolayer infected with RH-β1 strain, 48 hours incubation, β-galactosidase activity (CPRG)): 636 nM |
| CCCCCCCCCCCCCC(=O)OC1CC2(CC[C@]3(C=CC(=O)C=C3)O2)O[C@@]2(CC[C@]3(C=CC(=O)C=C3)O2)C1 (mixture of isomers) [16c, (8R,10S,21S)- and (8S,10R,21R)-Tetradecanoate of 7,9,11-trioxatetraspiro[5.1.1.1.5^12.2^10.3^8.2^6]tetracosa-1,4,13,16-dien-3,15-on-21-yl] | – | 81.5 | 346 | activity on the different blood stages of the parasite (FIG. 11) [3]: active on the different blood stages (rings, trophozoites and schizonts); speed and reversibility of the action (FIG. 11) [3]: extremely rapid and is not reversible |
| CCCCCCC(=O)OC1CC2(CC[C@]3(C=CC(=O)C=C3)O2)O[C@@]2(CC[C@]3(C=CC(=O)C=C3)O2)C1 (stereo partly drawn) [16b, (8R,10R,21S)-Heptanoate of 7,9,11-trioxatetraspiro[5.1.1.1.5^12.2^10.3^8.2^6]tetracosa-1,4,13,16-dien-3,15-on-21-yl] | 331 | – | – | – |
| CCCCCCCCCCCCC[C@@H]1C[C@@H](O)C[C@]2(CCC3(C=CC(=O)C=C3)O2)O1 [Natural aculeatin A, aculeatin A, reference compound] | 288 | – | – | IC50 [2, 4]: 309 nM |
| CCCCCCC(=O)OC1CC2(CC[C@]3(C=CC(=O)C=C3)O2)O[C@@]2(CC[C@]3(C=CC(=O)C=C3)O2)C1 (mixture of isomers) [16a, (8R,10S,21S)- and (8S,10R,21R)-Heptanoate of 7,9,11-trioxatetraspiro[5.1.1.1.5^12.2^10.3^8.2^6]tetracosa-1,4,13,16-dien-3,15-on-21-yl] | – | 343 | – | – |
| O=C1C=C[C@]2(C=C1)CCC1(CC(O)C[C@]3(CC[C@@]4(C=CC(=O)C=C4)O3)O1)O2 (stereo partly drawn) [4b, (8R,10R,21S)-21-Hydroxy-7,9,11-trioxatetraspiro[5.1.1.1.5^12.2^10.3^8.2^6]tetracosa-1,4,13,16-dien-3,15-one] | – | 584 | 1500 | – |
| CCCCCCCCCCCCCC(=O)CC(=O)OC1C[C@]2(CCC3(C=CC(=O)C=C3)O2)O[C@]2(CCC3(C=CC(=O)C=C3)O2)C1 (stereo partly drawn) [16e, (8R,10S,21S)- and (8S,10R,21R)-3-Oxohexadecanoate of 7,9,11-trioxatetraspiro[5.1.1.1.5^12.2^10.3^8.2^6]tetracosa-1,4,13,16-dien-3,15-on-21-yl] | 122 | – | – | – |
| CCCCCCCCCCCCCCCCCCOC(=O)C[C@@H]1C[C@H](O)C[C@]2(CCC3(C=CC(=O)C=C3)O2)O1 (racemic) [12c, octadecyl (2S,4S,6R)- and (2R,4R,6S)-(4-Hydroxy-11-oxo-1,7-dioxadispiro[5.1.5.2]pentadeca-9,12-dien-2-yl)-acetate] | – | 1030 | 3540 | – |
| CCCCCCN(CCCCCC)C(=O)C[C@@H]1C[C@@H](O)C[C@]2(CCC3(C=CC(=O)C=C3)O2)O1 (racemic) [10e, (2S,4R,6R)- and (2R,4S,6S)—N,N-dihexyl-2-(4-hydroxy-11-oxo-1,7-dioxadispiro[5.1.5.2]pentadeca-9,12-dien-2-yl)-acetamide] | – | 899 | – | – |
| CCCCCCCCCCCCCCCCCCOC(=O)C[C@@H]1C[C@H](O)C[C@@]2(CCC3(C=CC(=O)C=C3)O2)O1 (racemic) [13c, octadecyl (2S,4S,6S)- and (2R,4R,6R)-(4-Hydroxy-11-oxo-1,7-dioxadispiro[5.1.5.2]pentadeca-9,12-dien-2-yl)-acetate] | – | 1130 | 3520 | – |
| CCCCCCCCCCOC(=O)C[C@@H]1C[C@@H](O)C[C@]2(CCC3(C=CC(=O)C=C3)O2)O1 (racemic) [10b, decyl (2S,4R,6R)- and (2R,4S,6S)-(4-Hydroxy-11-oxo-1,7-dioxadispiro[5.1.5.2]pentadeca-9,12-dien-2-yl)-acetate] | – | 654 | 341 | – |
| O=C1C=CC2(C=C1)CC[C@]1(CC(O)C[C@@]3(CCC4(C=CC(=O)C=C4)O3)O1)O2 (stereo partly drawn) [4a, (8R,10S,21S)- and (8S,10R,21R)-21-Hydroxy-7,9,11-trioxatetraspiro[5.1.1.1.5^12.2^10.3^8.2^6]tetracosa-1,4,13,16-dien-3,15-one] | 414 | – | – | IC50 [2, 4]: 173 nM |
| 6-epi-aculeatin D [reference compound] | 451 | – | – | IC50 [2, 4]: 377 nM |
| CCCCCCCCCCOC(=O)CC1CC(O)C[C@@]2(CCC3(C=CC(=O)C=C3)O2)O1 (mixture of isomers) [11b, (2S,4R,6S)- and decyl (2R,4S,6R)-(4-Hydroxy-11-oxo-1,7-dioxadispiro[5.1.5.2]pentadeca-9,12-dien-2-yl)-acetate] | – | 1360 | 1640 | – |
| CCCOC(=O)C[C@@H]1C[C@@H](O)C[C@]2(CCC3(C=CC(=O)C=C3)O2)O1 (mixture of isomers) [10a, propyl (2S,4R,6R)- and (2R,4S,6S)-(4-Hydroxy-1′-oxo-1,7-dioxadispiro[5.1.5.2]pentadeca-9,12-dien-2-yl)-acetate] | 1840 | – | – | IC50 [2, 4]: 500 nM |
